Test results reported in PMC9433906, “Evaluation of the biotechnological potential of peptide Cupiennin 1a and analogs” (Frontiers in Microbiology, 2022).
Values after ≈ are worked out from the molar mass of the structure shown. Where a SMILES comes first, the peptide text is derived from it.

What was measured:
[1] = tested on: C. parapsilosis (ATCC22019); test: Broth microdilution MIC (CLSI M27-A3 with modifications); format: cell-based, Candida parapsilosis; conditions: 2.5 × 10^3 CFU.ml^−1, Sabouraud medium, 24 h at 30°C, absorbance 595 nm
Protocol: The broth microdilution method was performed according to the Clinical and Laboratory Standards Institute Guideline M27-A3 with modifications to determine the Minimum Inhibitory Concentration (MIC; [Clinical Laboratory Standards Institute, 2008]).
Initially, the fungus C. parapsilosis (ATCC22019) was grown in a Petri dish containing Sabouraud Dextrose Agar medium (Dextrose 40 g/L; Peptic digestion of animal tissue 5.0 g.L^−1; and Agar 15 g.L^−1) for 48 h. Subsequently, a pre-inoculum was performed from a yeast colony that was placed in 10 ml of liquid Sabouraud medium and incubated for 16 h at 28°C, with a constant rotation of 200 rpm. After the incubation period, 2.5 × 10^3 CFU.ml^−1 of fungus per well was incubated with different peptide micromolar concentrations (Table 1) to assess the MIC for each peptide.
Fungal cells incubated with Sabouraud medium were used as negative control, while positive control was represented by fungal cells incubated in Sabouraud medium and amphotericin B (10 μM). Subsequently, plates were incubated for 24 h at 30°C. After this period, the absorbance was read (595 nm) in a BioTek spectrophotometer (PowerWaveTM HT Microplate Reader), and data of antifungal activity with percentage of inhibition of peptides were plotted in GraphPad Prism 8 Software.

[2] = tested on: K. pneumoniae (ATCC 13883); format: cell-based, Klebsiella pneumoniae; conditions: K. pneumoniae (ATCC13883); 5×10^5 CFU.ml^−1, Mueller-Hinton Broth, 37°C, 24 h, OD 595 nm, biological triplicates
Protocol: (§1) Susceptibility tests were performed using clinical isolates of Klebsiella pneumoniae carbapenemase (KPC 1410503) and methicillin-resistant S. aureus (MRSA 3730592). Tests were also performed with ATCC (American Type Culture Collection) isolates of K. pneumoniae (ATCC 13883) and S. aureus (ATCC 25923).
(§2) Two multidrug-resistant clinical isolates and two ATCC isolates were chosen to perform microbial susceptibility testing as models for studies with bacteria susceptible to antimicrobials found in the Gram-Positive and Gram-Negative groups of bacteria.
(§3) The broth microdilution method was performed according to the Clinical and Laboratory Standards Institute (CLSI) M07-A10 protocol to determine the Minimum Inhibitory Concentration (MIC; [Clinical Laboratory Standards Institute, 2015]). The assay was performed on 96-well microplates (TPP, United States), containing 5×10^5 CFU.ml^−1 of each tested bacterium per well and different peptide micromolar concentrations (Table 1) in a final volume of 100 μl of Mueller-Hinton Broth (MH). Negative control was represented by bacteria incubated in MH medium, while positive control was represented by culture incubated in MH medium with Amikacin. Plates were kept under agitation at 37°C in a BioTek spectrophotometer (PowerWaveTM HT Microplate Reader) with optical density (OD) readings at 595 nm every 30 min for 24 h. Inhibition results were analyzed using GraphPad Prism 8 software by comparing the OD from negative control wells (100%) to those containing peptides. All tests were performed in biological triplicates.

RAW 264.7 cells = test: MTT cytotoxicity test against RAW 264.7; format: cell-based, mice; conditions: 24 h
Protocol: The cell line RAW 264.7 was obtained from the Rio de Janeiro Cell Bank (CR108). These cells are macrophages derived from induced tumors in male BALB/c mice infected with Abelson’s murine leukemia virus ([Raschke et al., 1978]). RAW264.7 cells were grown in DMEM medium (Dulbecco’s Modified Eagle’s medium, composed of CaCl2 (anhydrous) 200 mg.ml^−1, Fe(NO3).9H2O 0.1 mg.ml^−1, KCL 400 mg.ml^−1, MgSO4 (anhydrous) 97.67 mg.ml^−1, NaCL 6.400 mg.ml^−1, NaH2PO4.H2O 125 mg.ml^−1) supplemented with 10% (v/v) of bovine fetal serum, 0.5% (v/v) of DMEM amino acid solution, 0.05% (w/v) gentamicin, 0.5% (w/v) of L-glutamine, and 0.5% (w/v) of penicillin/streptomycin (1,000 U.ml^−1) in an incubator containing 5% CO2, at 37°C, and 95% humidity ([Raschke et al., 1978]; [Nguyen et al., 2017]).
RAW 264.7 cells were seeded in 96-well plates, at a concentration of 10^4 cells/well, and incubated for 24 h. Each peptide was subsequently added at different micromolar concentrations (Table 1). Positive control was performed by cells in culture medium and negative control, as cell culture in lysis solution (10 mM Tris, 1 mM EDTA, and 0.1% Triton X-100, pH 7.4).
Cell viability analyses were performed in technical and biological replicates, and readings were obtained after 24 h of contact with peptides. At the end of the incubation period, MTT (Sigma-Aldrich, United States) was used to assess the ability of living cells to reduce salt 3-[4,5-dimethylthiazole-2-yl]-2,5-diphenyltetrazolium bromide for formazan production. Plates were read at 570 ηm ([Mosmann, 1983]) and results were expressed in the percentage of living cells. The results were analyzed using GraphPad Prism 8 software where a One-Way ANOVA statistical test was followed by Bonferroni’s multiple comparisons test.

[3] = tested on: methicillin-resistant S. aureus (MRSA 3730592); format: cell-based, Staphylococcus aureus; conditions: Methicillin-Resistant S. aureus—MRSA clinical isolate 3730592; 5×10^5 CFU.ml^−1, Mueller-Hinton Broth, 37°C, 24 h, OD 595 nm, biological triplicates
Protocol: as §1, §2, §3

S. aureus (ATCC 25923) = format: cell-based, Staphylococcus aureus; conditions: S. aureus (ATCC25923); 5×10^5 CFU.ml^−1, Mueller-Hinton Broth, 37°C, 24 h, OD 595 nm, biological triplicates
Protocol: as §1, §2, §3

[4] = tested on: Klebsiella pneumoniae carbapenemase (KPC 1410503); format: cell-based; conditions: K. pneumoniae carbapenemase—KPC clinical isolate 1410503; 5×10^5 CFU.ml^−1, Mueller-Hinton Broth, 37°C, 24 h, OD 595 nm, biological triplicates; NE = MIC value not found
Protocol: as §1, §2, §3

[5] = tested on: Spodoptera frugiperda (SF21) cells; test: In vitro test against insect cells (MTT); format: cell-based; conditions: lowest concentration tested (1 μM), 24 h
Protocol: To evaluate the ability of the peptides to cause lysis and morphological changes in insect cells ([Dutra, 2019]; Patent: BR 102022 006138 6) as a first screening of the insecticidal activity of the peptides, in this work, the Spodoptera IPLB-SF-21AE _LVI-Cenargen cell line ([Vaughn et al., 1977]) was used and different concentrations of the peptides were added to the culture medium.
Cells were maintained at 27°C in TNMFH medium (Grace’s insect medium supplemented with lactalbumin hydrolyzate and yeastolate), supplemented with 10% (v/v) fetal bovine serum (Sigma-Aldrich; [Castro et al., 2006]).
Cell cultivation was carried out in 10 ml culture bottles, model K11-1050 25cm^2, with 5 ml of culture medium per bottle. For the assays, the SF21 cells were grown in TNMFH medium, added 10% (v/v) of bovine fetal serum, and distributed in plates of 96 wells at the concentration of 2×10^4 cells per well, after counting was performed in the Neubauer chamber. Cell suspension was distributed in a volume of 100 μl per well. Peptides were diluted in TNMFH medium and 100 μl of medium with peptide was added, obtaining concentrations of 10, 5, and 1 μM, reaching the volume of 200 μl at the final concentrations of reaction per well. Cells were placed in incubation at 27°C, for 24 h.
After 24 h, the cells were analyzed for their modifications, morphological alterations, turbidity of the medium, formation of clumps, and/or lysis in the presence of peptides, by observation under optical microscopy (Nikon Eclipse TS100) with 20× and 40× magnification. Characteristics that could represent cell death or cell dysfunction caused by the peptides were observed compared to control cells. Cells were evaluated by cell viability using the MTT test 3-[4,5-dimethylthiazole-2-yl]-2,5-diphenyltetrazolium bromide 0.5 mg.ml^−1 (Sigma-Aldrich). To perform the test, the cell culture medium was discarded, and we added 100 μl of new medium. Ten μl of MTT was added to each well and incubated for 4 h, with the plates protected from light. After 4 h, we added 100 μl of DMSO to each well to dissolve the formazan crystals, and the reading in the microplate reader ([Riss et al., 2016]) was then performed. The results were analyzed using GraphPad Prism 8 software, where a One-Way ANOVA statistical test was followed by Bonferroni’s multiple comparisons test.

Compound	Minimum inhibitory concentration (MIC) [1] [µM]	Minimum inhibitory concentration (MIC) [2] [µM]	viable cells (RAW264.7) in the MIC found for MRSA, S. aureus ATCC25923 and C. parapsilosis ATCC22019 (RAW 264.7 cells; at the MIC of R1a for these strains (15.81 μM in Table 3)) [%]	toxicity on RAW264.7 macrophages in the concentration range of 33.77 μM (in words) (RAW 264.7 cells; concentration range of 33.77 μM)	Minimum inhibitory concentration (MIC) [3] [µM]	Minimum inhibitory concentration (MIC) (S. aureus (ATCC 25923)) [µM]	Minimum inhibitory concentration (MIC) [4] [µM]	viable cells (RAW264.7) (RAW 264.7 cells; 33.77 μM) [%]	toxicity to RAW264.7 cells at the MIC concentration (in words) (RAW 264.7 cells; R1b: MIC found for KPC1410503, R3b: MIC at high concentrations against all tested microorganisms)	cell viability (SF21) [5]	cell viability (RAW264.7) in the MIC found for MRSA3730592, S. aureus ATCC25923, K. pneumoniae ATCC13883 (RAW 264.7 cells; at the MIC of R2b for these strains (17.15 μM in Table 3))	toxicity against RAW264.7 cells (in words) (RAW 264.7 cells; tested concentrations of Table 1 (128–16 μg.ml^−1))
CC(C)C[C@H](NC(=O)[C@H](C)NC(=O)CNC(=O)[C@H](Cc1ccccc1)NC(=O)CN)C(=O)N[C@@H](Cc1ccccc1)C(=O)N[C@@H](CCCCN)C(=O)N[C@@H](Cc1ccccc1)C(=O)N[C@@H](CC(C)C)C(=O)N[C@@H](C)C(=O)N[C@@H](CCCCN)C(=O)N[C@@H](CCCCN)C(=O)N[C@H](C(=O)N[C@@H](C)C(=O)N[C@@H](CCCCN)C(=O)N[C@H](C(=O)N[C@H](C(=O)N[C@@H](C)C(=O)N[C@@H](CCCCN)C(N)=O)C(C)C)[C@@H](C)O)C(C)C [Peptide R1a] (H-GFGALFKFLAKKVAKTVAK-NH2)	15.81 (≈ 32 µg/mL)	31.63 (≈ 64 µg/mL)	63	high toxicity	15.81 (≈ 32 µg/mL)	15.81 (≈ 32 µg/mL)	–	–	–	–	–	–
CC(C)C[C@H](NC(=O)[C@H](C)NC(=O)CNC(=O)[C@H](Cc1ccccc1)NC(=O)CN)C(=O)N[C@@H](Cc1ccccc1)C(=O)N[C@@H](CCCCN)C(=O)N[C@@H](Cc1ccccc1)C(=O)N[C@@H](CC(C)C)C(=O)N[C@@H](C)C(=O)N[C@@H](CCCCN)C(=O)N[C@@H](CCCCN)C(=O)N[C@H](C(=O)N[C@@H](C)C(=O)N[C@@H](CCCCN)C(=O)N[C@H](C(=O)N[C@H](C(=O)N[C@@H](C)C(N)=O)C(C)C)[C@@H](C)O)C(C)C [Peptide R1b] (H-GFGALFKFLAKKVAKTVA-NH2)	16.88 (≈ 32 µg/mL)	33.77 (≈ 64 µg/mL)	–	–	33.77 (≈ 64 µg/mL)	33.77 (≈ 64 µg/mL)	67.54 (≈ 128 µg/mL)	58	high toxicity	–	–	–
CC(C)C[C@H](NC(=O)[C@H](C)NC(=O)CNC(=O)[C@H](Cc1ccccc1)NC(=O)CN)C(=O)N[C@@H](Cc1ccccc1)C(=O)N[C@@H](CCCCN)C(=O)N[C@@H](Cc1ccccc1)C(=O)N[C@@H](CC(C)C)C(=O)N[C@@H](C)C(=O)N[C@@H](CCCCN)C(=O)N[C@@H](CCCCN)C(=O)N[C@H](C(=O)N[C@@H](C)C(=O)N[C@@H](CCCCN)C(=O)N[C@@H](C)C(=O)N[C@H](C(=O)N[C@@H](C)C(N)=O)C(C)C)C(C)C [Peptide R2b] (H-GFGALFKFLAKKVAKAVA-NH2)	34.31 (≈ 64 µg/mL)	17.15 (≈ 32 µg/mL)	–	–	17.15 (≈ 32 µg/mL)	17.15 (≈ 32 µg/mL)	34.31 (≈ 64 µg/mL)	–	–	below 50%	above 50%	high toxicity
